Test results as given in publication PMC11714206, “Massively Parallel Screening of Toll/Interleukin‐1 Receptor (TIR)‐Derived Peptides Reveals Multiple Toll‐Like Receptors (TLRs)‐Targeting Immunomodulatory Peptides” (Advanced Science, 2024).

Biological target: T1, MyD88^TIR (Homo sapiens, UniProt Q99836)
T1 construct: MyD88 (residues 148–296); 6xHis; made in house; host or cells: E. coli BL21 (DE3)
Assay: T‐Surf phage library (P8 and P3) selection against MyD88^TIR, four rounds, NGS read counts
Assay type: binding
Conditions: for P8_MyD88 Rank (after) / P8_MyD88 Rank (before): P8 library; for P3_MyD88 Rank (after) / P3_MyD88 Rank (before): P3 library; for Population: 4th round of selection against MyD88 TIR, share of NGS reads
Method in brief: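 Read counts come from NGS of phage pools after the fourth selection round, barcoded by 20-cycle PCR and filtered for quality ≥30. Each round: phage incubated 1 h at RT on immobilised TIR protein (5 µg mL^−1, BSA-blocked), washed, HCl-eluted and amplified in E. coli TG1.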

[1] = P8_MyD88: rank by NGS read count after grouping
[2] = P8_MyD88: rank by NGS read count before grouping
[3] = selection against MyD88 TIR, rank by count after grouping
[4] = selection against MyD88 TIR, rank by count before grouping
[5] = P8_MyD88: rank by count after grouping
[6] = P8_MyD88: rank by count before grouping
[7] = 4R selection against MyD88, rank after grouping
[8] = 4R selection against MyD88, rank before grouping
[9] = selection against MyD88, rank by count after grouping
[10] = selection against MyD88, rank by count before grouping
[11] = selection against MyD88, rank after grouping
[12] = selection against MyD88, rank before grouping
[13] = P3_MyD88: rank by count after grouping
[14] = P3_MyD88: rank by count before grouping
[15] = P8_MyD88 pool: P8 T-Surf phage library

T1 sequence (Q99836 148-296): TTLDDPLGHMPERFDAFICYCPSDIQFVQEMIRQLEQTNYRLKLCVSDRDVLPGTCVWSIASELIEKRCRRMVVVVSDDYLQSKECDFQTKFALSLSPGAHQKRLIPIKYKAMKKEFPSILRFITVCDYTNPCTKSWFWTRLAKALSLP

YLLLSVLHTRSARGYV
Rank (after) [1]: 925 | Rank (before) [2]: 2010

YLLRSLFQTLFPRRTE
Rank (after) [1]: 1013 | Rank (before) [2]: 2020

YLMWPQEEEEIPLFWH
P8_MyD88 Rank (after) [3]: 257 | P8_MyD88 Rank (before) [4]: 447

YLQDLDWFYERLVSLF
Rank (after) [5]: 478 | Rank (before) [6]: 2080

YLQWGYPCFWDRLRFA
P3_MyD88 Rank (after) [3]: 251 | P3_MyD88 Rank (before) [4]: 1559

YLQWGYSWFWDRLRFA
P3_MyD88 Rank (after) [3]: 259 | P3_MyD88 Rank (before) [4]: 1558

YLRADDIWVWEKLLYA
P8_MyD88 Rank (after) [7]: 646 | P8_MyD88 Rank (before) [8]: 2040

YLRADDLVLGKTAVC
P8_MyD88 Rank (after) [7]: 643 | P8_MyD88 Rank (before) [8]: 2038

YLRADDNDYYWVTHVLLRHL
Rank (after) [1]: 983 | Rank (before) [2]: 2070

YLRADDSCSWEKLRYA
P8_MyD88 Rank (after) [9]: 694 | P8_MyD88 Rank (before) [10]: 2043

YLRADDSWFEEKLLFA
P8_MyD88 Rank (after) [11]: 574 | P8_MyD88 Rank (before) [12]: 2062

YLRADDSWFWEKLLQIA
P8_MyD88 Rank (after) [11]: 553 | P8_MyD88 Rank (before) [12]: 2056

YLRADEFWTLEKLLTA
P8_MyD88 Rank (after) [7]: 609 | P8_MyD88 Rank (before) [8]: 2071

YLRADELLKILYANETM
Rank (after) [1]: 870 | Rank (before) [2]: 2072

YLRLEVIWFWENRRYA
P8_MyD88 Rank (after) [11]: 491 | P8_MyD88 Rank (before) [12]: 2075

YLRRSVFQTMLARRTE
Rank (after) [1]: 899 | Rank (before) [2]: 2077

YLRWGYPWFGDRLRFA
P3_MyD88 Rank (after) [11]: 539 | P3_MyD88 Rank (before) [12]: 1562

YNFISHLYDALRLNKIAPF
P3_MyD88 Rank (after) [7]: 634 | P3_MyD88 Rank (before) [8]: 1728

YNFISHLYDALRLNKIETF
P3_MyD88 Rank (after) [3]: 271 | P3_MyD88 Rank (before) [4]: 896

YNFISQLYDALQRNRI
P3_MyD88 Rank (after) [9]: 710 | P3_MyD88 Rank (before) [10]: 1743

YNLAHYLYVSMRASGI
P8_MyD88 Rank (after) [9]: 715 | P8_MyD88 Rank (before) [10]: 2132

YNLAQYLHVSLMARGI
P8_MyD88 Rank (after) [7]: 664 | P8_MyD88 Rank (before) [8]: 2134

YNLISHLYDAMHRNRI
P3_MyD88 Rank (after) [11]: 549 | P3_MyD88 Rank (before) [12]: 1746

YPQDLDWFYERLVSQF
P8_MyD88 Rank (after) [9]: 719 | P8_MyD88 Rank (before) [10]: 2097

YPQDLEWLYERLVSPV
Rank (after) [1]: 945 | Rank (before) [2]: 2099

YPQDLQWLYERLGSLI
Rank (after) [1]: 892 | Rank (before) [2]: 2104

YPQELDWCYERLVSLL
P8_MyD88 Rank (after) [9]: 762 | P8_MyD88 Rank (before) [10]: 2102

YPQELVLFYELLGSLV
P8_MyD88 Rank (after) [9]: 699 | P8_MyD88 Rank (before) [10]: 2101

YQLVFVHFWMFDGRTA
P8_MyD88 Rank (after) [11]: 518 | P8_MyD88 Rank (before) [12]: 2106

YQWRNALSAAANLCGW
P3_MyD88 Rank (after) [11]: 569 | P3_MyD88 Rank (before) [12]: 1617

YRKWGYLRIWDRWRFA
Rank (after) [13]: 411 | Rank (before) [14]: 1613

YSFLSHLAAAFELHGI
P8_MyD88 Rank (after) [3]: 285 | P8_MyD88 Rank (before) [4]: 543

YSFTGQLHLYLIHRGV
Rank (after) [13]: 462 | Rank (before) [14]: 1433

YSFTGQLHRYMVQRGV
P3_MyD88 Rank (after) [7]: 649 | P3_MyD88 Rank (before) [8]: 1434

YSQHDVLWVKNFLSHI
Rank (after) [1]: 1025 | Rank (before) [2]: 2122

YTALANSGCHTFRDND
Rank (after) [13]: 397 | Rank (before) [14]: 1635

YTALANSGFHTFHDND
P3_MyD88 Rank (after) [7]: 613 | P3_MyD88 Rank (before) [8]: 1634

YTALINSGFHTFRDNH
P3_MyD88 Rank (after) [3]: 273 | P3_MyD88 Rank (before) [4]: 1637

YTALNHSGFHTFRDND
P3_MyD88 Rank (after) [3]: 253 | P3_MyD88 Rank (before) [4]: 1702

YTALNNMGFHTFRGND
P3_MyD88 Rank (after) [9]: 705 | P3_MyD88 Rank (before) [10]: 1627

YTALNNSGFNTFRDND
Rank (after) [13]: 188 | Rank (before) [14]: 1704

YTALPNSGFHTFRDNN
P3_MyD88 Rank (after) [3]: 257 | P3_MyD88 Rank (before) [4]: 1636

YTALPNSGFHTIRDNE
P3_MyD88 Rank (after) [11]: 552 | P3_MyD88 Rank (before) [12]: 1712

YTALSYRGFHDFRGNE
P3_MyD88 Rank (after) [11]: 504 | P3_MyD88 Rank (before) [12]: 1638

YTALTAAANLSGW
Population (P3_MyD88 pool: P3 T-Surf phage library): 0.00378%

YTALTIAAFIPFVIM
P3_MyD88 Rank (after) [11]: 574 | P3_MyD88 Rank (before) [12]: 1647

YTALTNCGFHTFRDNV
P3_MyD88 Rank (after) [3]: 208 | P3_MyD88 Rank (before) [4]: 1649

YTALTNICFHTFRDND
Rank (after) [13]: 178 | Rank (before) [14]: 1654

YTALTNIGIHTFRDND
P3_MyD88 Rank (after) [3]: 223 | P3_MyD88 Rank (before) [4]: 1655

YTALTNMSFHTFRDNY
P3_MyD88 Rank (after) [9]: 677 | P3_MyD88 Rank (before) [10]: 1653

YTALTNRAFIPFVIM
P3_MyD88 Rank (after) [7]: 590 | P3_MyD88 Rank (before) [8]: 1658

YTALTNRGFHTFLDND
Rank (after) [13]: 479 | Rank (before) [14]: 1631

YTALTNRGFHTFRDHH
P3_MyD88 Rank (after) [9]: 687 | P3_MyD88 Rank (before) [10]: 1651

YTALTNRGFLTFRDNA
Rank (after) [13]: 180 | Rank (before) [14]: 1650

YTALTNSGCHTFRVND
P3_MyD88 Rank (after) [9]: 689 | P3_MyD88 Rank (before) [10]: 1657

YTALTNSGCPTFCVIA
Rank (after) [13]: 444 | Rank (before) [14]: 1694

YTALTNSGFHIFSANG
P3_MyD88 Rank (after) [11]: 497 | P3_MyD88 Rank (before) [12]: 1664

YTALTNSGFHTFLDNY
Rank (after) [13]: 119 | Rank (before) [14]: 1665

YTALTNSGFHTFRDHE
P3_MyD88 Rank (after) [3]: 227 | P3_MyD88 Rank (before) [4]: 1676

YTALTNSGFHTFRVNV
P3_MyD88 Rank (after) [7]: 659 | P3_MyD88 Rank (before) [8]: 1668

YTALTNSGFLSFRDTD
Rank (after) [13]: 428 | Rank (before) [14]: 1661

YTALTNSGFPTFRDHD
Rank (after) [13]: 171 | Rank (before) [14]: 1662

YTALTNSGFSEENLF
P3_MyD88 Rank (after) [7]: 668 | P3_MyD88 Rank (before) [8]: 1683

YTALTNSGIHTLRDND
Rank (after) [13]: 174 | Rank (before) [14]: 1691

YTALTNSGVHTFLDND
P3_MyD88 Rank (after) [3]: 206 | P3_MyD88 Rank (before) [4]: 1688

YTALTNSRLHNFRDND
P3_MyD88 Rank (after) [9]: 696 | P3_MyD88 Rank (before) [10]: 1707

YTALTNSSFHTFLDND
P3_MyD88 Rank (after) [3]: 219 | P3_MyD88 Rank (before) [4]: 1696

YTALTNSSFHTFRDNH
P3_MyD88 Rank (after) [11]: 514 | P3_MyD88 Rank (before) [12]: 1697

YTALTYSGFHTFRDNV
P3_MyD88 Rank (after) [3]: 276 | P3_MyD88 Rank (before) [4]: 1642

YTALTYSGFHTFRGND
P3_MyD88 Rank (after) [7]: 645 | P3_MyD88 Rank (before) [8]: 1641

YTAMTNSGFHTFRGND
Rank (after) [13]: 429 | Rank (before) [14]: 1711

YTARTNSGFHTFLDND
P3_MyD88 Rank (after) [3]: 225 | P3_MyD88 Rank (before) [4]: 1708

YTELTSSGFHTFRDND
P3_MyD88 Rank (after) [3]: 198 | P3_MyD88 Rank (before) [4]: 1713

YTSLTNRGFLIFRDND
P3_MyD88 Rank (after) [7]: 596 | P3_MyD88 Rank (before) [8]: 1624

YVDSPWALDELVKILQ
P8_MyD88 Rank (after) [3]: 207 | P8_MyD88 Rank (before) [4]: 300

YYDSRWALDELLKIL
P8_MyD88 Rank (after) [11]: 484 | P8_MyD88 Rank (before) [12]: 1678

YYDSRWALDELLKILDAKETM
Rank (after) [5]: 470 | Rank (before) [6]: 1677

YYDSRWALDELLKILYANETM
Rank (after) [5]: 171 | Rank (before) [6]: 192 | Population [15]: 0.00617%

YYDSRWALDELLQILHARELF
P8_MyD88 Rank (after) [3]: 232 | P8_MyD88 Rank (before) [4]: 437

YYDSRWALDELWLILEQR
P8_MyD88 Rank (after) [9]: 749 | P8_MyD88 Rank (before) [10]: 1673

YYDSRWALNELLEIL
Rank (after) [1]: 903 | Rank (before) [2]: 1682

YYFTDWDSEAEIIQKM
Rank (after) [5]: 112 | Rank (before) [6]: 118 | Population [15]: 0.02%

YYFTIGIAKRKLSRK
P8_MyD88 Rank (after) [9]: 692 | P8_MyD88 Rank (before) [10]: 1687

YYLDHSHPRKQNGEFG
P3_MyD88 Rank (after) [11]: 556 | P3_MyD88 Rank (before) [12]: 1436

YYLDPSHLRKHSGEIG
P3_MyD88 Rank (after) [11]: 558 | P3_MyD88 Rank (before) [12]: 1464

YYLDPSHLRKQRGEVD
Rank (after) [13]: 418 | Rank (before) [14]: 1439

YYLDPSHLRKQSGESE
P3_MyD88 Rank (after) [3]: 255 | P3_MyD88 Rank (before) [4]: 1460

YYLDPSHLRKQSGESERL
P3_MyD88 Rank (after) [9]: 728 | P3_MyD88 Rank (before) [10]: 1459

YYLDPSHLRKQSGW
P3_MyD88 Rank (after) [9]: 720 | P3_MyD88 Rank (before) [10]: 1453

YYLDPSHLRKQSVEFS
Rank (after) [13]: 473 | Rank (before) [14]: 1451

YYLDPSHLRKQTGSLAKAFA
P3_MyD88 Rank (after) [3]: 224 | P3_MyD88 Rank (before) [4]: 1463

YYLDTSHHRKQSGEFG
P3_MyD88 Rank (after) [3]: 246 | P3_MyD88 Rank (before) [4]: 1438

YYLEPIYLRKQSGDFG
P3_MyD88 Rank (after) [3]: 283 | P3_MyD88 Rank (before) [4]: 1475
